Assay results published in PMC9230201, “Sustained Consumption of a Decaffeinated Green Coffee Nutraceutical Has Limited Effects on Phenolic Metabolism and Bioavailability in Overweight/Obese Subjects” (Nutrients, 2022).

Key:
[1] = Urinary excretion of phenolic metabolites after intake of the GCPE nutraceutical; conditions: for Urinary excretion / Cumulative urinary excretion, Total 0–24 h: urine; for Cumulative urinary excretion, Total 0–24 h: mean ± SEM, n = 9
Description: (§1) Participants attended the Human Nutrition Unit (HNU) at the Institute of Food Science, Technology and Nutrition (ICTAN-CSIC) on two consecutive days at the beginning of the intervention (week 0) and also on two consecutive days at the end of the study, after consuming daily two doses of the GCPE nutraceutical, providing 600 mg/d phenols, during two months (week 8). […] A licensed health care professional placed an intravenous catheter in the subjects′ nondominant arm and collected a fasting blood sample (baseline, 0 h). Then, subjects drank the soluble GCPE nutraceutical dissolved in 200 mL of water. […] On the sampling days, volunteers remained at the HNU, where a (poly)phenol-free diet was provided. Half an hour after consuming the nutraceutical, volunteers ate a breakfast consisting of ham, cheese, white bread, and a yogurt. Lunch (paella, bread, and yogurt) and an afternoon snack (muffin and yogurt) were eaten 5 and 9 h, respectively, after consuming the nutraceutical. Water and isotonic beverages were freely available. […] The same protocol was followed during visits at the end of the 8-week intervention. On each occasion, two days before each visit to the HNU, subjects consumed a low (poly)phenol diet free of foods containing hydroxycinnamates such as coffee, herbal teas, red wine, artichokes, whole grain cereals, vegetables, fruits and fruit juices, and dried fruits. Only banana, watermelon, cantaloupes, and potatoes were allowed.
(§2) Blood samples were immediately centrifuged (10 min, 3000 rpm, 4 °C) to obtain plasma. […] All biological samples were stored at −80 °C until analysis.
(§3) To extract plasma metabolites, 10 µL of 50% (v/v) aqueous formic acid, and 900 µL cold acetonitrile containing 50 µL of 10% (w/v) ascorbic acid were added to 400 µL defrosted plasma. Samples were vortexed and centrifuged (14,000 rpm, 10 min, 4 °C), repeating the extraction and combining the two supernatants, which were reduced to dryness under nitrogen [13]. Dried samples were resuspended in 150 µL of 0.1% aqueous formic acid (containing 10% acetonitrile acidified with 0.1% formic acid), centrifuged (15 min, 14,000 rpm, 4 °C), and the supernatant collected. Urine samples were diluted 1:1 with Milli-Q water and centrifuged (14,000 rpm, 20 min, 4 °C) prior to analysis. Phosphate-buffered saline (3 mL) was added to a representative 300 mg sample of thawed feces, homogenized in an ultrasound bath during 10 min, centrifuged (14,000 rpm, 20 min, 4 °C), and the supernatants collected.
(§4) Mobile phase A was 0.1% formic acid in Milli-Q water, and mobile phase B was acetonitrile containing 0.1% formic acid at a 0.3 mL/min flow rate. […] Metabolites were identified based on their retention time using authentic standards when possible. […] Urine concentration of excreted metabolites was normalized to the total volume excreted in each studied interval.
(§5) Plasma (30 µL), urine (5 µL) and fecal extracts (5 µL) were filtered through 0.45 µm
(§6) cellulose-acetate membrane filters and injected into an Agilent 1200 series LC system
(§7) ESI-Jet Stream Technology (Agilent Technologies). A reverse-phase Ascentis Express
(§8) C18 (15 cm x 3 mm, 2.7 µm) column (Sigma-Aldrich Quimica, Madrid), preceded by a
(§9) phase A was 0.1% formic acid in Milli-Q water, and mobile phase B was acetonitrile
(§10) containing 0.1% formic acid at a 0.3 mL/min flow rate. The gradient started with 10% B
(§11) at 0 min, 30% B at 10 min, 40% B at 15 min, reaching 50% B at 20 min. The starting
(§12) gradient was then re-established in 2 min and maintained for 8 min to re-equilibrate the

[2] = Plasma pharmacokinetics of phenolic metabolites after intake of the GCPE nutraceutical (LC-MS-QToF); conditions: for AUC(0-t) / Tmax: 300 mg hydroxycinnamic acids; for AUC(0-t): AUC0–24h; for Tmax: Tmax (h) or Range; for Cmax: mean ± SEM, n = 9
Description: Participants attended the Human Nutrition Unit (HNU) at the Institute of Food Science, Technology and Nutrition (ICTAN-CSIC) on two consecutive days at the beginning of the intervention (week 0) and also on two consecutive days at the end of the study, after consuming daily two doses of the GCPE nutraceutical, providing 600 mg/d phenols, during two months (week 8). On each occasion, on the first visit day (Figure 1), subjects arrived at the HNU after an overnight (12 h) fast and provided a urine sample. A licensed health care professional placed an intravenous catheter in the subjects′ nondominant arm and collected a fasting blood sample (baseline, 0 h). Then, subjects drank the soluble GCPE nutraceutical dissolved in 200 mL of water. Subsequently, blood samples were collected in EDTA-coated tubes at 0.5, 1, 1.5, 2, 3, 4, 6, 8, 10, and 11 h. On the sampling days, volunteers remained at the HNU, where a (poly)phenol-free diet was provided. Half an hour after consuming the nutraceutical, volunteers ate a breakfast consisting of ham, cheese, white bread, and a yogurt. Lunch (paella, bread, and yogurt) and an afternoon snack (muffin and yogurt) were eaten 5 and 9 h, respectively, after consuming the nutraceutical. Water and isotonic beverages were freely available. Volunteers were instructed to eat a (poly)phenol-free dinner that night and to attend the HNU on the next day after a 12 h fast. Then, a final blood sample was obtained from the antecubital vein 24 h after consuming the nutraceutical. The same protocol was followed during visits at the end of the 8-week intervention. On each occasion, two days before each visit to the HNU, subjects consumed a low (poly)phenol diet free of foods containing hydroxycinnamates such as coffee, herbal teas, red wine, artichokes, whole grain cereals, vegetables, fruits and fruit juices, and dried fruits. Only banana, watermelon, cantaloupes, and potatoes were allowed.
as §2
To extract plasma metabolites, 10 µL of 50% (v/v) aqueous formic acid, and 900 µL cold acetonitrile containing 50 µL of 10% (w/v) ascorbic acid were added to 400 µL defrosted plasma. Samples were vortexed and centrifuged (14,000 rpm, 10 min, 4 °C), repeating the extraction and combining the two supernatants, which were reduced to dryness under nitrogen [13]. Dried samples were resuspended in 150 µL of 0.1% aqueous formic acid (containing 10% acetonitrile acidified with 0.1% formic acid), centrifuged (15 min, 14,000 rpm, 4 °C), and the supernatant collected.
A reverse-phase Ascentis Express C18 (15 cm × 3 mm, 2.7 µm) column (Sigma-Aldrich Quimica, Madrid, Spain), preceded by a Supelco 55215-U guard column (3 mm × 5 mm, 2.7 µm), was used for separation. Mobile phase A was 0.1% formic acid in Milli-Q water, and mobile phase B was acetonitrile containing 0.1% formic acid at a 0.3 mL/min flow rate. […] Metabolites were identified based on their retention time using authentic standards when possible.

[3] = Fecal excretion of phenolic metabolites after intake of the GCPE nutraceutical; conditions: feces
Description: as §1, §2, §3, §4, §5, §6, §7, §8, §9, §10, §11, §12

[4] = human, oral, week 0, first peak where biphasic
[5] = human, oral, week 8, first peak where biphasic
[6] = human, oral, 300 mg, Cmax, week 0, GCPE nutraceutical with 300 mg hydroxycinnamic acids
[7] = human, oral, 300 mg, Cmax, week 8, GCPE nutraceutical with 300 mg hydroxycinnamic acids

SMILES	Urinary excretion ([1]; week 0) [µmol/24 h]	Cumulative urinary excretion, Total 0–24 h ([1]; week 0) [µmol]	Urinary excretion ([1]; week 8) [µmol/24 h]	Cumulative urinary excretion, Total 0–24 h ([1]; week 8) [µmol]	Amount excreted in urine, 0- 3 h ([1]; week 0, interval 0–3 h) [µmol]	Amount excreted in urine, 3-6 h ([1]; week 0, interval 3–6 h) [µmol]	Amount excreted in urine, 6-9 h ([1]; week 0, interval 6–9 h) [µmol]	Amount excreted in urine, 9-11 h ([1]; week 0, interval 9–11 h) [µmol]	Amount excreted in urine, 11-24 h ([1]; week 0, interval 11–24 h) [µmol]	Amount excreted in urine, 0- 3 h ([1]; week 8, interval 0–3 h) [µmol]	Amount excreted in urine, 3-6 h ([1]; week 8, interval 3–6 h) [µmol]	Amount excreted in urine, 6-9 h ([1]; week 8, interval 6–9 h) [µmol]	Amount excreted in urine, 9-11 h ([1]; week 8, interval 9–11 h) [µmol]	Amount excreted in urine, 11-24 h ([1]; week 8, interval 11–24 h) [µmol]	AUC(0-t) ([2]; human, oral, week 0) [µM·h]	AUC(0-t) ([2]; human, oral, week 8) [µM·h]	Amount of fecal metabolite excreted at 0 h ([3]; week 0, mean ± SEM, n = 9) [µmol/g]	Amount of fecal metabolite excreted at 0 h ([3]; week 8) [µmol/g]	Amount of fecal metabolite excreted at 24 h ([3]; week 0) [µmol/g]	Amount of fecal metabolite excreted at 24 h ([3]; week 8) [µmol/g]	also measured
O=C(O)CCc1ccc(O)c(O)c1 [DHCA, 3-(3′,4′-Dihydroxyphenyl)propanoic acid]	16	16 ± 2	31	31 ± 5	0.5 ± 0.1	0.37 ± 0.09	2.3 ± 0.8	2.7 ± 0.6	7 ± 1	1 ± 0.4	1.4 ± 0.4	3.8 ± 0.9	3.1 ± 0.8	6 ± 2	2 ± 0.6	2.1 ± 0.5	0.011 ± 0.007	0.005 ± 0.002	0.008 ± 0.006	0.0001 ± 0.0001	Amount excreted in urine, TOTAL ([1]; week 0, Table S5 total): 16 ± 2 µmol; Amount excreted in urine, 0 h ([1]; week 8, 0 h (before intake on sampling day)): 15 ± 4 µmol; Amount excreted in urine, TOTAL ([1]; week 8, Table S6 total): 31 ± 5 µmol; Tmax [2, 4]: 10.2 ± 0.3 h; Tmax [2, 5]: 9.4 ± 0.5 h; Cmax [2, 6]: 220 ± 60 nM; Cmax [2, 7]: 220 ± 50 nM
O=C(O)c1ccc(O)cc1 [4-Hydroxybenzoic acid]	1.3	1.3 ± 0.2	1.01	1.01 ± 0.09	0.3 ± 0.2	0.11 ± 0.02	0.1 ± 0.02	0.09 ± 0.01	0.29 ± 0.04	0.14 ± 0.02	0.1 ± 0.01	0.09 ± 0.02	0.08 ± 0.02	0.26 ± 0.03	0.9 ± 0.2	0.5 ± 0.2	0.004 ± 0.004	0.006 ± 0.004	0.0006 ± 0.0004	0.01 ± 0.01	Tmax [2, 4]: 7 ± 2 h; Tmax [2, 5]: 5 ± 3 h; Cmax [2, 6]: 90 ± 10 nM; Cmax [2, 7]: 80 ± 10 nM
COc1cc(/C=C/C(=O)O[C@@H]2C[C@@](O)(C(=O)O)C[C@@H](O)[C@@H]2O)ccc1O [5-Feruloylquinic acid]	–	1.5 ± 0.2	–	1.5 ± 0.2	0.8 ± 0.2	0.5 ± 0.1	0.13 ± 0.04	0.03 ± 0.01	0.09 ± 0.01	0.8 ± 0.1	0.39 ± 0.07	0.2 ± 0.04	0.05 ± 0.03	0.08 ± 0.02	–	–	0.0009 ± 0.0007	0.002 ± 0.002	0.002 ± 0.001	0.0003 ± 0.0003	AUC0–24h ([2]; week 0): 0.09 ± 0.02 µM/min; Cmax ([2]; week 0, GCPE nutraceutical with 300 mg hydroxycinnamic acids): 32 ± 4 nM; Tmax (h) or Range ([2]; week 0, first peak where biphasic): 0.9 ± 0.1 h; AUC0–24h ([2]; week 8): 0.08 ± 0.02 µM/min; Cmax ([2]; week 8, GCPE nutraceutical with 300 mg hydroxycinnamic acids): 34 ± 5 nM; Tmax (h) or Range ([2]; week 8, first peak where biphasic): 0.9 ± 0.1 h
